System: tonic hind limb extensor convulsions (mouse model of generalised seizure)
Assay: mini-MEST (maximal electroshock seizure threshold) test in the mouse
Conditions: for change in vivo at 5 mg/kg / change in vivo at 50 mg/kg: Mus musculus, ip, change in CC50; for change in vivo at 5 mg/kg: 0.25 h, read-out: % change from vehicle, 5 mg/kg i.p., 15 min post dose; for change in vivo at 50 mg/kg: 0.5 h, read-out: % change from vehicle, 50 mg/kg i.p., 30 min post dose
Procedure: The efficacy of novel resorcinols 2, 3, 5, 8, 10, 15, 16, 17, 18, 19, 41 45, 46, 53, 56 and 58 were tested in a novel mouse model of generalised seizure, the mini-MEST (maximal electroshock seizure threshold) test, which uses lower n numbers than typically used.
The maximal electroshock seizure threshold (MEST) test is widely utilized preclinically to evaluate pro- or anti-convulsant properties of test compounds (Loscher et al., 1991).
In the MEST test the ability of a drug to alter the seizure threshold current required to induce hind limb tonic extensor convulsions is measured according to an “up and down” method of shock titration (Kimball et al., 1957). An increase in seizure threshold is indicative of anti-convulsant effect.
The ability of a test compound to alter the stimulus intensity, expressed as current (mA), required to induce the presence of tonic hind limb extensor convulsions, is assessed in the MEST.
Naïve mice were acclimatised to the procedure room in their home cages for up to 7 days, with food and water available ad libitum.
All animals were weighed at the beginning of the study and randomly assigned to treatment groups based on a mean distribution of body weight across groups.
The first animal within a treatment group was given a shock at the expected or estimated CC50 current. For subsequent animals, the current was lowered or raised depending on the convulsions outcome from the preceding animal in log scale intervals.
Data generated from each treatment group were used to calculate the CC50±SEM values for the treatment group.
Vehicle: (5% ethanol, 10% solutol in 85% Saline) was prepared as follows: 1 mL of ethanol, 2 mL of solutol were warmed to 60° C., in 17 mL of saline (1:2:17).
The test compounds used were 2, 3, 5, 8, 10, 15, 16, 17, 18, 19, 41, 45, 46, 53, 56 and 58 Test compounds were administered at 5-50 mg/kg (i.p.) in a 1:2:17 ethanol:solutol:saline formulation.
Test compound effects were also calculated as percentage change in CC50 from the vehicle control group.
Significant difference between drug-treated animals and controls were assessed according to Litchfield and Wilcoxon (1949).

[1] = 5 mg/kg i.p., test 15 min post dose
[2] = 50 mg/kg i.p., test 30 min post dose

Compound | CC50 +/− SEM [1] | CC50 +/− SEM [2] | change in vivo at 5 mg/kg | change in vivo at 50 mg/kg
C=C(C)[C@@H]1C[C@H](O)C(C)=C[C@H]1c1c(O)cc(-c2ccc(F)cc2)cc1O [Compound 18, (1R,2R,4S)-4″-fluoro-5-methyl-2-(prop-1-en-2-yl)-1,2,3,4-tetrahydro-[1,1′:4′,1″-terphenyl]-2′,4,6′-triol] | 31.0 ± 4.5 mA | 61.5 ± 1.3 mA | 38% | 178%
C=C(C)[C@@H]1C[C@H](O)C(C)=C[C@H]1c1c(O)cc(-c2ccnc(C(F)(F)F)c2)cc1O [Compound 58, (1′R,2′R,4′S)-5′-Methyl-2′-(prop-1-en-2-yl)-4-(2-(trifluoromethyl)pyridin-4-yl)-1′,2′,3′,4′-tetrahydro-[1,1′-biphenyl]-2,4′,6-triol] |  | 88.5 ± 1.3 mA |  | 234%
C=C(C)[C@@H]1C[C@H](O)C(C)=C[C@H]1c1c(O)cc(C2=CCCC2)cc1O [Compound 9, (1′R,2′R,4′S)-4-(Cyclopent-1-en-1-yl)-5′-methyl-2′-(prop-1-en-2-yl)-1′,2′,3′,4′-tetrahydro-[1,1′-biphenyl]-2,4′,6-triol] |  | >131.0 mA |  | > 344%
C=C(C)[C@@H]1C[C@H](O)C(C)=C[C@H]1c1c(O)cc(-c2ccc(OC)nc2)cc1O [Compound 17, (1′R,2′R,4′S)-4-(6-Methoxypyridin-3-yl)-5′-methyl-2′-(prop-1-en-2-yl)-1′,2′,3′,4′-tetrahydro-[1,1′-biphenyl]-2,4′,6-triol] | 39.0 +/− 0.2 mA | >114 mA | 66% | > 385%
C=C(C)[C@@H]1C[C@H](O)C(C)=C[C@H]1c1c(O)cc(-c2cccnc2OC)cc1O [Compound 35, (1′R,2′R,4′S)-4-(2-Methoxypyridin-3-yl)-5′-methyl-2′-(prop-1-en-2-yl)-1′,2′,3′,4′-tetrahydro-[1,1′-biphenyl]-2,4′,6-triol] | 38.0 ± 1.9 mA | >131.0 mA | 62% | 457%
C=C(C)[C@@H]1C[C@H](O)C(C)=C[C@H]1c1c(O)cc(-c2cnn(C)c2)cc1O [Compound 10, (1′R,2′R,4′S)-5′-Methyl-4-(1-methyl-1H-pyrazol-4-yl)-2′-(prop-1-en-2-yl)-1′,2″,3′,4′-tetrahydro-[1,1′-biphenyl]-2,4′,6-triol] | 28.3 +/− 1.1 mA | 31.0 +/− 0.2 mA | 21% | 32%
